According to patent US20230303613A1, “3′3′ CYCLIC DINUCLEOTIDES WITH AN ALKENYLENE” (Institute of Organic Chemistry and Biochemistry AS CR, v.v.i, priority 2020, published 2023):
Like-named read-outs stand apart in the source and are kept apart here. Values belong to the molecule of their own block, whether it stands above or below them.

Columns and labels:
WT STING [1] = target: T1, WT STING (Homo sapiens, UniProt Q86WV6, H232R); assay: Differential Scanning Fluorimetry with WT STING; assay type: binding; parameters: 8xHis (N, cleaved yes); SUMO (N, cleaved yes); made in house; host or cells: E. coli Rosetta-gami B (DE3); conditions: thermal shift vs apoprotein, 150 µM CDN, truncated human WT STING 0.1 mg/ml; for ΔTm at 150 µM: read-out: DSF ΔTm WT STING
From the text: (§1) Purified PCR products were cleaved with restriction enzymes BamHI (cat. # R0136S, NEB, Ipswich, USA) and NotI (cat. # R0189S, NEB, Ipswich, USA) and cloned into the pSUMO vector linearized with the identical enzymes.
(§2) Bacterial pellets were re-suspended in ice-cold lysis buffer containing 50 mmol.1^-1 TrisCl (cat. # T1503, Sigma Aldrich, Czech Republic) pH 8.0, 300 mmol.1^-1 NaCl, 3 mmol.1^-1 β-mercaptoethanol (cat. # M6250, Sigma Aldrich, Czech Republic), 10% glycerol (cat. # G5516, Sigma Aldrich, Czech Republic) and 20 mmol.1^-1 imidazole (cat. # I5513, Sigma Aldrich, Czech Republic) using Dounce homogenizer. DNase I (cat. # D5025, Sigma Aldrich, Czech Republic) and RNase A (cat. # R6513, Sigma Aldrich, Czech Republic) were added (final concentration 50 µg/ml) together with MgCl2 (final concentration 5 mmol.l^-1) to the homogenate and bacteria were lysed using French Press G-M™ High-Pressure Cell Press Homogenizer (1500 psi, 3 cycles). […] The resin was poured into a chromatography column, washed with 50 ml buffer A (50 mmol.1^-1 TrisCl (pH 8.0), 800 mmol.1^-1 NaCl, 3 mmol.1^-1 β-mercaptol; 10% glycerol; 20 mmol.1^-1 imidazole) and 8-His-SUMO tagged STING proteins were eluted with 15 ml buffer A containing 300 mmol.1^-1 imidazole. […] Proteins were concentrated with Amicon® Ultra-15 10 K device (cat. # UFC901008, Merck Millipore, Billerica, USA) and flash frozen in liquid N2.
(§3) 20 µL solutions of the reaction mixtures were pipetted in triplicates into 96 well optical reaction plates and thermal denaturation of samples were performed on real time PCR cycler (LightCycler® 480 Instrument II - Roche, Basel, Switzerland). The first derivative of the thermal denaturation curves was performed to calculate denaturing temperatures of STING - CDN complexes and STING apoproteins. The thermal shift for each CDN was calculated by subtracting the average denaturing temperature of STING apoprotein from the average denaturing temperature of STING CDN complex.
Target sequence in this assay (Q86WV6 140-343 H232R): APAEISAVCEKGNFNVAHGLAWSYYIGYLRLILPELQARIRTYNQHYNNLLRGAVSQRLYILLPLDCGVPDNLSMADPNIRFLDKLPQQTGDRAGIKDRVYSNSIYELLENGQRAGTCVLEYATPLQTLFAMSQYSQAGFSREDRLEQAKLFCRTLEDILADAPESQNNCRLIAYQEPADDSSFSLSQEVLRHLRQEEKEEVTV

AQ STING (G230A-R293Q) = target: T2, AQ STING (G230A-R293Q) (Homo sapiens, UniProt Q86WV6, G230A/H232R/R293Q); assay: Differential Scanning Fluorimetry with AQ STING; assay type: binding; conditions: thermal shift vs apoprotein, 150 µM CDN, truncated human AQ STING 0.1 mg/ml; for ΔTm at 150 µM: read-out: DSF ΔTm AQ STING
T2 construct: 8xHis (N, cleaved yes); SUMO (N, cleaved yes); made in house; host or cells: E. coli Rosetta-gami B (DE3)
From the text: as §1, §2, §3

WT STING [2] = target: T1, WT STING; assay: Digitonin assay using 293T wtSTING-FL reporter cells; assay type: cell-based; conditions: 293T wtSTING-FL cells; 30 minutes in Digitonin buffer, then 5 hours; ISRE firefly luciferase reporter
From the text: (§4) Two complementary oligonucleotides of the sequence […] […] […] […] […] The oligonucleotides were mixed in equal molar amounts, hybridized, and cleaved by restriction endonucleases HindIII (cat. #. R0104S, NEB, Ipswich, USA) and BglII (cat. # R0144S, NEB, Ipswich, USA). Ultimately, they were ligated into plasmid pGL4.27 (cat. # E6651, Promega, Madison, USA) linearized with the same enzymes. As result the sequence with four ISRE sites was placed upstream of the minimum promoter of firefly luciferase reporter gene.
(§5) After 5 minutes incubation at room temperature (RT), 250 µL of the mixture was added dropwise to the cells in one well. Cells were incubated 36 hours at 37° C. with 5% CO2, and then detached with 0.05% Trypsin and 0.22 g/L EDTA (both cat. # L0941, Biowest, Riverside, USA).
(§6) Transfected cells were seeded onto poly-D-lysine coated six well plates at density 50,000 cells per 1 cm^2 in DMEM medium with high glucose containing 10% heat inactivated FBS, 30 µg/mL blasticidin (cat. # ant-bl-05, InvivoGen, San Diego, USA), 0.06 mg/ml Penicillin G and 0.1 mg/ml Streptomycin Sulfate (both cat. #. L0018, Biowest, Riverside, USA). The medium was replenished every 3 - 4 days until visible colonies of cells resistant to blasticidin were formed.
(§7) Blasticidin resistant cells stably expressing WT STING were further transfected with […] plasmid following the same procedure as described above. […] Homogeneous culture of stably double transfected cells was prepared by limiting dilution of cells in 96 well plates and wells with cells were selected that originated from a single cell.
The medium was removed next day and three fold serial dilutions of compounds in Digitonin buffer containing 50 mmol.l^-1 HEPES (cat. # H3375, Sigma Aldrich, Czech Republic) pH 7.0, 100 mmol.1^-1 KCl, 3 mmol.l^-1 MgCl2, 0.1 mmol.l^-1 DTT (cat. # D0632, Sigma Aldrich, Czech Republic), 85 mmol.1^-1 Sucrose (cat. # S7903, Sigma Aldrich, Czech Republic), 0.2% BSA (cat. # A2153, Sigma Aldrich, Czech Republic), 1 mmol.l^-1 ATP (cat. # A1852, Sigma Aldrich, Czech Republic), 0.1 mmol.1^-1 GTP (cat. # G8877, Sigma Aldrich, Czech Republic), and 10 µg/mL Digitonin A (cat. # D141, Sigma Aldrich, Czech Republic) were added to the cells. The buffer was removed after 30 minutes incubation at 37° C. with 5% CO2, the cells were washed once with 100 µl of cultivation medium, and 100 µl of medium was added to each well. The plates with cells were incubated for 5 hours at 37° C. with 5% CO2, 50µl of the medium was removed and 30 µl of ONE-Glo^Tm Luciferase Assay System reagent (cat. # E6120, Promega, Madison, USA) was added to each well. Luminescence was read on Synergy H1 (Biotek, Winooski, USA).
Target sequence in this assay (Q86WV6 whole entry H232R, the tested form may be a part): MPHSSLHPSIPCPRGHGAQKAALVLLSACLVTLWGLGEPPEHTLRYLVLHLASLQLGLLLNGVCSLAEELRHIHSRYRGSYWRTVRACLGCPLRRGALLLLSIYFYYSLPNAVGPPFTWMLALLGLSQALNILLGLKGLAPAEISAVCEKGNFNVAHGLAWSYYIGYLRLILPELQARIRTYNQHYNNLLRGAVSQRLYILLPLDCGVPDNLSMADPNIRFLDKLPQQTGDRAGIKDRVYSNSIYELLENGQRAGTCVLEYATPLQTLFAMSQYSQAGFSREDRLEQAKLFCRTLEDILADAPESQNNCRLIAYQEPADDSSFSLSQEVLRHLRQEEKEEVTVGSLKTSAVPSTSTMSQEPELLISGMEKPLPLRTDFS

WT STING [3] = target: T1, WT STING; assay: 293T WT STING standard reporter assay; assay type: cell-based; conditions: 293T wtSTING-FL cells; 7 hours with compound, no digitonin; ISRE firefly luciferase reporter
From the text: as §4, §5, §6, §7
Target sequence in this assay (Q86WV6 whole entry H232R, the tested form may be a part): as above
The medium was removed next day and three-fold serial dilutions of compounds in 100 µl medium were added to the cells. The plates with cells were incubated for 7 hours at 37° C. with 5% CO2. After 50 µl of the medium was removed, 30 µl of ONE-Glo^Tm Luciferase Assay System reagent (cat. # E6120, Promega, Madison, USA) was added to each well and luminescence was read on Synergy H1 (Biotek, Winooski, USA).

[4] = tested on: peripheral blood mononuclear cell (PBMC); assay: Peripheral blood mononuclear cell assay; assay type: cell-based; conditions: 1h with compound, washed, 15 hour incubation
Protocol: Selected compounds were tested in an in vitro peripheral blood mononuclear cell (PBMC) assay. Freshly isolated PBMCs were seeded into U-shaped shaped 96-well plates at desity 500,000 cells per well in 50 µl of RPMI 1640 medium supplemented with 10% heat inactivated FBS. Serially dilluted tested compounds were added to wells in 50 µl of cultivation medium and cell were incubated with compounds for 1h at 37° C. with 5% CO2. Plates with cells were then spun 500 g for 5 minutes and medium was removed. Cells were washed twice with the cell culture medium by the use of centrifugation and gently resuspended in 100 µl medium without compounds. After 15 hour incubation at 37° C. with 5% CO2, the cell culture medium was collected and the levels of interferon-alpha (INF-α), interferon-gamma (INF-γ) and tumor necrosis factor-alpha (TNF-α) were determined with ProcartaPlex Assays (ThermoFisher, Waltham, USA) and MAGPIX System (Merck KGaA, Darmstadt, Germany).

[5] = PBMC, IFN-α level in medium, read-out: PBMC EC50 IFN-α
[6] = PBMC, IFN-γ level in medium, read-out: PBMC EC50 IFN-γ
[7] = PBMC, TNF-α level in medium, read-out: PBMC EC50 TNF-α

T2 sequence (Q86WV6 140-343 G230A/H232R/R293Q): as the sequence (Q86WV6 140-343 H232R) above, with G91A, R154Q counted along it

- ΔTm at 150 µM (WT STING [1]): 0.3 °C
- ΔTm at 150 µM (AQ STING (G230A-R293Q)): 2.9 °C
- EC50 (WT STING [2]): 6400 nM
Molecule: Nc1nc2c(ncn2[C@@H]2O[C@@H]3/C=C\P(=O)(O)O[C@H]4[C@@H](N)[C@H](n5cnc6c(N)ncnc65)O[C@@H]4COP(=O)(O)O[C@H]3[C@H]2O)c(=O)[nH]1 [Compound 67, (1S,6R,8R,9R,10S,13Z,15R,17R,18R)-9-amino-17-(2-amino-6-oxo-6,9-dihydro-1H-purin-9-yl)-8-(6-amino-9H-purin-9-yl)-3,12,18-trihydroxy-2,4,7,11,16-pentaoxa-3λ^5,12λ^5-diphosphatricyclo[13.3.0.0^6,^10]octadec-13-ene-3,12-dione]

- DSF ΔTm WT STING (WT STING [1]): 2.6 °C
- DSF ΔTm AQ STING (AQ STING (G230A-R293Q)): 7.7 °C
- EC50 (WT STING [2]): 5800 nM
Molecule: Nc1nc2c(ncn2[C@@H]2O[C@@H]3COP(=O)(O)O[C@H]4[C@@H](O)[C@H](n5cnc6c(=O)[nH]c(N)nc65)O[C@@H]4COP(=O)(O)O[C@H]3[C@H]2O)c(=O)[nH]1 [3′3′c-di-GMP, 3′3′-c-di-GMP, reference compound]

- EC50 (WT STING [2]): 700 nM
Molecule: Nc1nc2c(ncn2[C@@H]2O[C@@H]3COP(=O)(O)O[C@H]4C[C@H](n5cnc6c(N)ncnc65)O[C@@H]4/C=C/P(=O)(O)O[C@H]3[C@H]2F)c(=O)[nH]1 [Compound 59, (1S,6R,8R,9R,10R,13E,15R,17R)-8-(2-amino-6-oxo-6,9-dihydro-1H-purin-9-yl)-17-(6-amino-9H-purin-9-yl)-9-fluoro-3,12-dihydroxy-2,4,7,11,16-pentaoxa-3λ^5, 12λ^5-diphosphatricyclo[13.3.0.0^6,^10]octadec-13-ene-3,12-dione]

- ΔTm at 150 µM (WT STING [1]): 1.9 °C
- ΔTm at 150 µM (AQ STING (G230A-R293Q)): 8.6 °C
- EC50 (WT STING [2]): 780 nM
Molecule: Nc1nc2c(ncn2[C@@H]2O[C@@H]3/C=C/P(=O)(O)O[C@H]4C[C@H](n5cnc6c(N)ncnc65)O[C@@H]4COP(=O)(O)O[C@H]3[C@H]2O)c(=O)[nH]1 [Compound 55, (1S,6R,8R,10S,13E,15R,17R,18R)-17-(2-amino-6-oxo-6,9-dihydro-1H-purin-9-yl)-8-(6-amino-9H-purin-9-yl)-3,12,18-trihydroxy-2,4,7,11,16-pentaoxa-3λ^5,12λ^5-diphosphatricyclo[13.3.0.0^6,^10]octadec-13-ene-3,12-dione]

- EC50 (WT STING [2]): 750 nM
- EC50 (WT STING [3]): > 200000 nM
Molecule: Nc1ncnc2c1ncn2[C@@H]1O[C@@H]2COP(=O)(O)O[C@H]3C[C@H](n4cnc5c(N)ncnc54)O[C@@H]3/C=C/P(=O)(O)O[C@H]2[C@H]1F [Compound 61, (1S,6R,8R,9R,10R,13E,15R,17R)-8,17-bis(6-amino-9H-purin-9-yl)-9-fluoro-3,12-dihydroxy-2,4,7,11,16-pentaoxa-3λ^5,12λ^5-diphosphatricyclo[13.3.0.0^6,10]octadec-13-ene-3,12-dione]

- EC50 (WT STING [3]): 122 nM
Molecule: {[(1R,6R,8R,9R,10R,13E,15R,17R,18R)-8,17-bis(6-amino-9H-purin-9-yl)-9,18-difluoro-3,12-dioxo-3-({[(propan-2-yloxy)carbonyl]oxy}methoxy)-2,4,7,11,16-pentaoxa-3λ^5,12λ^5- diphosphatricyclo[13.3.0.0^6,^10]octadec-13-en-12-yl]oxy}methyl propan-2-yl carbonate [Compound 81c]
- EC50 ([4]; IFN-α level in medium, read-out: PBMC EC50 IFN-α): 600 nM
- EC50 ([4]; IFN-γ level in medium, read-out: PBMC EC50 IFN-γ): 1300 nM
- EC50 ([4]; TNF-α level in medium, read-out: PBMC EC50 TNF-α): 250 nM

- EC50 (WT STING [2]): 280 nM
- EC50 (WT STING [3]): 71800 nM
Molecule: Nc1ncnc2c1ncn2[C@@H]1O[C@@H]2/C=C/P(=O)(O)O[C@H]3C[C@H](n4cnc5c(N)ncnc54)O[C@@H]3COP(=O)(O)O[C@H]2[C@H]1F [Compound 60, (1R,6R,8R,10S,13E,15R,17R,18R)-8,17-bis(6-amino-9H-purin-9-yl)-18-fluoro-3,12-dihydroxy-2,4,7,11,16-pentaoxa-3λ^5,12λ^5-diphosphatricyclo[13.3.0.0^6,^10]octadec-13-ene-3,12-dione]
- EC50 [4, 5]: > 500000 nM
- EC50 [4, 6]: 164000 nM
- EC50 [4, 7]: 100000 nM

- EC50 (WT STING [3]): 15 nM
Molecule: CC1(C(=O)OCOP2(=O)/C=C/[C@H]3O[C@@H](n4cnc5c(N)ncnc54)[C@H](F)[C@@H]3OP(=O)(OCOC(=O)C3(C)CCCCC3)OC[C@H]3O[C@@H](n4cnc5c(N)ncnc54)[C@H](F)[C@@H]3O2)CCCCC1 (single isomer, unassigned) [Compound 82c]
- EC50 [4, 5]: 100 nM
- EC50 [4, 6]: 70 nM
- EC50 [4, 7]: 60 nM
